What all share (assay): NCI tumour cell line growth inhibition, 48 h
Assay [1] concerns COLO 205 colon.
Assay [2] deals with DU-145 prostate.
The subject of assay [3] is HCT-15 colon.
The test system of assay [4] is HOP-62 NSCLC.
Assay [5] has as its system HT29 colon.
Assay [6] has as its system NCI/ADR-RES ovarian.
Assay [7] relates to OVCAR-4 ovarian.
Assay [8] deals with OVCAR-8 ovarian.
The test system of assay [9] is SK-MEL-2 melanoma.
The subject of assay [10] is UO-31 renal.

This passage reports GI50 and TGI results from PubChem BioAssay (NCI).

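All cell lines were grown in 96-well plates and treated with compound for 48 hours. GI50: concentration for 50% inhibition of growth. Definition used: TGI = concentration required for complete inhibition of growth.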

On to `O=C(CN1C(=O)S/C(=C\C(Cl)=C\c2ccccc2)C1=O)NCCCn1ccnc1`, for which the GI50 in assay [1] was 2.1 µM; in [2], 2.22 µM; in assay [3], 1.95 µM; in assay [4], 3.45 µM; in assay [5], 2.18 µM; in assay [6] it was 4.13 µM. The GI50 in assay [7] was 1.86 µM; in assay [8], 2.85 µM; in assay [9] it was 2.8 µM; in assay [10], 1.61 µM. Also, the TGI in [1] is 4.82 µM; in assay [2], 5.64 µM; in assay [3], 7 µM; in [4] it was 22.5 µM; in [5] it was 6.07 µM; in [6], > 100 µM. Besides, the TGI in assay [7] is 4.39 µM; in assay [8], > 100 µM; in [9], 9.55 µM; in assay [10], 3.49 µM.
Regarding `COc1ccc2c(c1)C=C1CSCC3=Cc4cc(OC)ccc4OC13O2`, the GI50 in assay [1] was 0.292 µM; in [2] it was 0.402 µM; in assay [3], 0.359 µM; in assay [4] it was 0.407 µM; in assay [5], 0.34 µM; in assay [6], 0.308 µM. The GI50 in assay [7] is 1.54 µM; in assay [8], 0.522 µM; in [9], 0.625 µM; in assay [10], 0.642 µM. Moreover, the TGI is 0.917 µM in [1]; > 100 µM in assay [2]; > 100 µM in assay [3]; > 100 µM in assay [4]; > 100 µM in [5]; > 100 µM in assay [6]. Further, the TGI in assay [7], in assay [8], in [9] and in [10] was > 100 µM throughout.
Turning to `c1ccc(/C(=N\Nc2ccc3ccccc3n2)c2ccccn2)cc1`, the GI50 in [1] is 0.407 µM; in assay [2] it was 0.881 µM; in assay [3] it was 0.417 µM; in [4] it was 1.21 µM; in [5] it was 0.608 µM; in assay [6], 0.387 µM. Moreover, the GI50 in assay [7] was 0.418 µM; in assay [8] it was 0.456 µM; in assay [9], 0.604 µM; in [10], 0.361 µM. In addition, the TGI stood at 5.08 µM in assay [1]; 16.8 µM in assay [2]; 14.8 µM in assay [3]; 15.9 µM in assay [4]; 26.1 µM in assay [5]; 14.2 µM in assay [6]. Also, the TGI in assay [7] is > 100 µM; in assay [8], 17.4 µM; in assay [9], 7.4 µM; in assay [10], 4.89 µM.
As to `O=CN1N=C(c2ccc(Nc3ccnc4cc(Cl)ccc34)cc2)CC1c1ccc(Cl)cc1` (stereo not given), the GI50 in assay [1] was 2.4 µM; in assay [2], 1.94 µM; in assay [3] it was 0.58 µM; in assay [4], 0.859 µM; in [5], 0.407 µM; in [6], 0.359 µM. The GI50 was 6.48 µM in [7], 3.22 µM in assay [8], 7.86 µM in assay [9] and 1.3 µM in assay [10]. Besides, the TGI in assay [1] is > 100 µM; in assay [2], > 100 µM; in assay [3] it was > 100 µM; in [4], > 100 µM; in assay [5] it was 8.5 µM; in assay [6], > 100 µM. Moreover, the TGI in [7], in [8], in assay [9] and in assay [10] was > 100 µM throughout.
`CCc1nc(N)nc(N)c1C#CC(C)c1cc(-c2ccnc(C)c2)c2oc(C)nc2c1` (stereo not given): the GI50 is 0.0246 µM in [1]; < 0.01 µM in [2]; < 0.01 µM in assay [3]; < 0.01 µM in assay [4]; < 0.01 µM in [5]; 0.0146 µM in assay [6]. Besides, the GI50 in [7] was 4.54 µM; in assay [8], < 0.01 µM; in assay [9], 1.9 µM; in assay [10], 0.0181 µM. Further, the TGI is 6.9 µM in assay [1]; 7.9 µM in assay [2]; 11.3 µM in assay [3]; 5.92 µM in assay [4]; 7.74 µM in assay [5]; 10.1 µM in [6]. Besides, the TGI in [7] stood at 26.4 µM; in assay [8], 47.1 µM; in [9] it was 10.6 µM; in assay [10], 11.5 µM.
For `CCCC(CCC)C(=O)OCC1(CO)C/C(=C\c2ccc(C(F)(F)F)cc2)C(=O)O1` (stereo not given), the GI50 is 0.577 µM in assay [1]; 13.4 µM in assay [2]; 12.8 µM in assay [3]; 2.34 µM in assay [4]; 14.4 µM in assay [5]; 15.3 µM in assay [6]. In addition, the GI50 was 17.9 µM in assay [7], 21 µM in assay [8], 18.6 µM in [9] and 12.2 µM in [10]. The TGI in assay [1] was 9.37 µM; in [2] it was 27.8 µM; in assay [3], 26.9 µM; in [4], 15.1 µM; in assay [5], 30.6 µM; in [6], 32 µM. The TGI was determined as 34.4 µM in assay [7], 41 µM in assay [8], 36 µM in assay [9] and 26.5 µM in assay [10].
With `COc1ccc(CN=C(N)N=C(N)N)cc1OC`, the GI50 was > 1000 µM in [1]; > 1000 µM in assay [2]; > 1000 µM in [3]; 602 µM in assay [4]; > 1000 µM in assay [5]; > 1000 µM in assay [6]. Besides, the GI50 was 215 µM in assay [7], 444 µM in assay [8], 859 µM in assay [9] and > 1000 µM in assay [10]. Also, the TGI in assay [1], in [2], in [3], in assay [4], in assay [5] and in assay [6] was > 1000 µM throughout. Moreover, the TGI in assay [7], in [8], in assay [9] and in assay [10] was > 1000 µM each time.
